Test results: PMC7407272, “Induction of Lysosome Membrane Permeabilization as a Therapeutic Strategy to Target Pancreatic Cancer Stem Cells” (Cancers, 2020)

How the values were obtained:
PDAC4 3D spheres = experiment: Viability curves on PDAC4 3D spheres; type: cell-based, human; details: Homo sapiens, 30 h
From the text: The PDAC patient-derived xenograft (PDX) Panc354 (referred to hereafter as PDAC3) was obtained from Dr. Manuel Hidalgo under a Material Transfer Agreement with the Spanish National Cancer Centre (CNIO), Madrid, Spain (Reference no. I409181220BSMH). PDAC1, PDAC2 and PDAC4 PDXs were established from primary patient resected tumors. Samples were provided by the BioBank Hospital Ramón y Cajal-IRYCIS (PT13/0010/0002), integrated in the Spanish National Biobanks Network and they were processed following standard operating procedures with the appropriate approval of the Ethical and Scientific Committees (Control no. No. Control: DE-BIOB-73 AC65, RG.BIOB-96 REV, and CI-BIOB-08-10-01 rev), with informed consent and according to Declaration of Helsinki principles. Primary patient tumors were subcutaneously implanted in immunocompromised female 6- to 8-week-old NU-Foxn1nu nude mice (Envigo, Barcelona, Spain) and subsequently passage in vivo to establish PDX PDAC1, PDAC2 and PDAC4. Primary PDX-derived in vitro cultures were established as previously detailed. […]
Pancreatic CSC spheres were generated as previously described in ultra-low attachment plates (Corning) using CSC media: serum-free DMEM/F12 medium (1:1; #21331-020; Gibco, Waltham, MA, USA), supplemented with Pen/Strep (1:100; #1500-063; Gibco, Waltham, MA, USA), Fungizone (1:250; #15290-018; Gibco), L-Glutamine (1:100; #25030-024; Gibco, Waltham, MA, USA), B-27 (1:50; #17504-044; Gibco, Waltham, MA, USA) and basic fibroblast growth factor (FGF-b) (1:5000; Gibco, Waltham, MA, USA). […] To quantify spheres of > 40 μm, 1 mL of sample volume was analyzed with a CASY® Cell Counter (Roche Applied Sciences, Mannheim, Germany). […]

TYK2 = biological target: T1, TYK2 (Homo sapiens, UniProt P29597); experiment: TYK2 kinase assay (ProQinase); type: biochemical; details: kinase orthogonal assay
T1 construct: purchased ProQinase

FES = biological target: T2, FES (Homo sapiens, UniProt P07332); experiment: KINOMEscan; type: binding; details: read-out: % Ctrl
T2 construct: purchased DiscoveRx KINOMEscan

PIK3CA(E542K) = biological target: T3, PIK3CA(E542K) (Homo sapiens, UniProt P42336, E542K); experiment: KINOMEscan; type: binding; details: read-out: % Ctrl
T3 construct: purchased DiscoveRx KINOMEscan

FLT3(R834Q) = biological target: T4, FLT3(R834Q) (Homo sapiens, UniProt P36888, R834Q); experiment: KINOMEscan; type: binding; details: read-out: % Ctrl
T4 construct: purchased DiscoveRx KINOMEscan

INSR = biological target: T5, INSR (Homo sapiens, UniProt P06213); experiment: KINOMEscan; type: binding; details: read-out: % Ctrl
T5 construct: purchased DiscoveRx KINOMEscan

JNK1 = biological target: T6, JNK1 (Homo sapiens, UniProt P45983); experiment: KINOMEscan; type: binding; details: read-out: % Ctrl
T6 construct: purchased DiscoveRx KINOMEscan

RET = biological target: T7, RET (Homo sapiens, UniProt P07949); experiment: KINOMEscan; type: binding; details: read-out: % Ctrl
T7 construct: purchased DiscoveRx KINOMEscan

LRRK2(G2019S) = biological target: T8, LRRK2(G2019S) (Homo sapiens, UniProt Q5S007, G2019S); experiment: KINOMEscan; type: binding; details: read-out: % Ctrl
T8 construct: purchased DiscoveRx KINOMEscan

RSK4(KD2-C-t.) = biological target: T9, RSK4(KD2-C-t.) (Homo sapiens, UniProt Q9UK32); experiment: KINOMEscan; type: binding; details: read-out: % Ctrl
T9 construct: RSK4(KD2-C-t.); purchased DiscoveRx KINOMEscan

SBK1 = biological target: T10, SBK1 (Homo sapiens, UniProt Q52WX2); experiment: KINOMEscan; type: binding; details: read-out: % Ctrl
T10 construct: purchased DiscoveRx KINOMEscan

MARK4 = biological target: T11, MARK4 (Homo sapiens, UniProt Q96L34); experiment: KINOMEscan; type: binding; details: read-out: % Ctrl
T11 construct: purchased DiscoveRx KINOMEscan

SLK = biological target: T12, SLK (Homo sapiens, UniProt Q9H2G2); experiment: KINOMEscan; type: binding; details: read-out: % Ctrl
T12 construct: purchased DiscoveRx KINOMEscan

MYLK = biological target: T13, MYLK (Homo sapiens, UniProt Q15746); experiment: KINOMEscan; type: binding; details: read-out: % Ctrl
T13 construct: purchased DiscoveRx KINOMEscan

MYO3B = biological target: T14, MYO3B (Homo sapiens, UniProt Q8WXR4); experiment: KINOMEscan; type: binding; details: read-out: % Ctrl
T14 construct: purchased DiscoveRx KINOMEscan

TXK = biological target: T15, TXK (Homo sapiens, UniProt P42681); experiment: KINOMEscan; type: binding; details: read-out: % Ctrl
T15 construct: purchased DiscoveRx KINOMEscan

EPHB4 = biological target: T16, EPHB4 (Homo sapiens, UniProt P54760); experiment: KINOMEscan; type: binding; details: read-out: % Ctrl
T16 construct: purchased DiscoveRx KINOMEscan

PAK4 = biological target: T17, PAK4 (Homo sapiens, UniProt O96013); experiment: KINOMEscan; type: binding; details: read-out: % Ctrl
T17 construct: purchased DiscoveRx KINOMEscan

YES = biological target: T18, YES (Homo sapiens, UniProt P07947); experiment: KINOMEscan; type: binding; details: read-out: % Ctrl
T18 construct: purchased DiscoveRx KINOMEscan

T3 sequence (P42336 whole entry E542K): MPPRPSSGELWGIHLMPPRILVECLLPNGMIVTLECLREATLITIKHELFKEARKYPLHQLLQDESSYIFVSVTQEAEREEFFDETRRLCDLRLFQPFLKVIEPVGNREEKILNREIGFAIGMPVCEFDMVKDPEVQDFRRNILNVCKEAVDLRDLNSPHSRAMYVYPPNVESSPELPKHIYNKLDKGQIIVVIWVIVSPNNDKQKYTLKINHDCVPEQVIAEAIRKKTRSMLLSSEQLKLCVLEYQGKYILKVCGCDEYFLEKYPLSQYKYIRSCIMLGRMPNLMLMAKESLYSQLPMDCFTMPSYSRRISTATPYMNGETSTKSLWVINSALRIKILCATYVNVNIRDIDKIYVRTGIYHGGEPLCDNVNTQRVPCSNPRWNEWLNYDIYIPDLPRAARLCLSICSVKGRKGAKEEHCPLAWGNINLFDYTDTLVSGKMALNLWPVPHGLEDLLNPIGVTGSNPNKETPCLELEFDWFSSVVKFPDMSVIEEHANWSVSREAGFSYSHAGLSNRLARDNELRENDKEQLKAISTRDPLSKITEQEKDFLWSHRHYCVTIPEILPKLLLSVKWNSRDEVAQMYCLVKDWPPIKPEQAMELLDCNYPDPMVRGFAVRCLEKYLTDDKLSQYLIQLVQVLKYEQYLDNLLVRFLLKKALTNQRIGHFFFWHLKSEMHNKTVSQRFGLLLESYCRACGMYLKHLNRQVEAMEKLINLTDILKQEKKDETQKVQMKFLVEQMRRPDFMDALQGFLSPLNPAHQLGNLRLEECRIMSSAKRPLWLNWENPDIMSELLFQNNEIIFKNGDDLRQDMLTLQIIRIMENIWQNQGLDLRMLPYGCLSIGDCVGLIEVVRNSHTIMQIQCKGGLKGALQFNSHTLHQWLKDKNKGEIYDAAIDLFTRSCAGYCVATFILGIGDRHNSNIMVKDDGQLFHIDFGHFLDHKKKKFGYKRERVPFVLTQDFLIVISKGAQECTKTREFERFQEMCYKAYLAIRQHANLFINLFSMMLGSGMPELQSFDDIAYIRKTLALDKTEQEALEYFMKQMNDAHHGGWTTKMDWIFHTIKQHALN
T12 sequence (Q9H2G2 whole entry): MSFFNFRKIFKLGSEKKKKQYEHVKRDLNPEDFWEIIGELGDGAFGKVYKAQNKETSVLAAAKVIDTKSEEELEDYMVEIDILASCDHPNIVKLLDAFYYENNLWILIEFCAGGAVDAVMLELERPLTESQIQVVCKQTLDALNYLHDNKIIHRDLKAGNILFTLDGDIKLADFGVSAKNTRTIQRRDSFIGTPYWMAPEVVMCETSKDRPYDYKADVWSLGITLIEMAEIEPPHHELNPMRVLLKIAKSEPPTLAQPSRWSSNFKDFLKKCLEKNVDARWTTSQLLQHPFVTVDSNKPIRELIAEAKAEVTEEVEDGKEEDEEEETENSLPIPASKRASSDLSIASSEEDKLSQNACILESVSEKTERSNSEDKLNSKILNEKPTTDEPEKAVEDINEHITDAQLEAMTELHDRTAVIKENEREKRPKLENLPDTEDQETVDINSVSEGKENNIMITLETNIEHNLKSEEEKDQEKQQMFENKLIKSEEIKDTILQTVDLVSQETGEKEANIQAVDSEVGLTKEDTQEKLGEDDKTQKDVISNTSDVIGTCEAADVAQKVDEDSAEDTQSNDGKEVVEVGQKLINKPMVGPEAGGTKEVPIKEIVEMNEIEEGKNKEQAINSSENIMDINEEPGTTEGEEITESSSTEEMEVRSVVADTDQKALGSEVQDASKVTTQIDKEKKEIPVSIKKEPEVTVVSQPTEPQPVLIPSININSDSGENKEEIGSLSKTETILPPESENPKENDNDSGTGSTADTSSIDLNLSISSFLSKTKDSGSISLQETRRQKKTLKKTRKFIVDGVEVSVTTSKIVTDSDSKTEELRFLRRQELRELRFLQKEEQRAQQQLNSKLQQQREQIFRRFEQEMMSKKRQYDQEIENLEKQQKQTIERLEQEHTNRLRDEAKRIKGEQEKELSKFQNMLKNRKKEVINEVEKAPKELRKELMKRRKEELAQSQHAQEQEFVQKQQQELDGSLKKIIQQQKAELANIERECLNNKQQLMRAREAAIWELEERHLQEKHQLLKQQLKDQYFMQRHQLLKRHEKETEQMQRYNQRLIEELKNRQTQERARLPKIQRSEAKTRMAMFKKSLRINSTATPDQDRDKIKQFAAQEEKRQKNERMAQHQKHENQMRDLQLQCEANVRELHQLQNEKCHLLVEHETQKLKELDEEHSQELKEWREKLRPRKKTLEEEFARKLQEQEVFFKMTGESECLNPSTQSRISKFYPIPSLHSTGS
T8 sequence (Q5S007 whole entry G2019S): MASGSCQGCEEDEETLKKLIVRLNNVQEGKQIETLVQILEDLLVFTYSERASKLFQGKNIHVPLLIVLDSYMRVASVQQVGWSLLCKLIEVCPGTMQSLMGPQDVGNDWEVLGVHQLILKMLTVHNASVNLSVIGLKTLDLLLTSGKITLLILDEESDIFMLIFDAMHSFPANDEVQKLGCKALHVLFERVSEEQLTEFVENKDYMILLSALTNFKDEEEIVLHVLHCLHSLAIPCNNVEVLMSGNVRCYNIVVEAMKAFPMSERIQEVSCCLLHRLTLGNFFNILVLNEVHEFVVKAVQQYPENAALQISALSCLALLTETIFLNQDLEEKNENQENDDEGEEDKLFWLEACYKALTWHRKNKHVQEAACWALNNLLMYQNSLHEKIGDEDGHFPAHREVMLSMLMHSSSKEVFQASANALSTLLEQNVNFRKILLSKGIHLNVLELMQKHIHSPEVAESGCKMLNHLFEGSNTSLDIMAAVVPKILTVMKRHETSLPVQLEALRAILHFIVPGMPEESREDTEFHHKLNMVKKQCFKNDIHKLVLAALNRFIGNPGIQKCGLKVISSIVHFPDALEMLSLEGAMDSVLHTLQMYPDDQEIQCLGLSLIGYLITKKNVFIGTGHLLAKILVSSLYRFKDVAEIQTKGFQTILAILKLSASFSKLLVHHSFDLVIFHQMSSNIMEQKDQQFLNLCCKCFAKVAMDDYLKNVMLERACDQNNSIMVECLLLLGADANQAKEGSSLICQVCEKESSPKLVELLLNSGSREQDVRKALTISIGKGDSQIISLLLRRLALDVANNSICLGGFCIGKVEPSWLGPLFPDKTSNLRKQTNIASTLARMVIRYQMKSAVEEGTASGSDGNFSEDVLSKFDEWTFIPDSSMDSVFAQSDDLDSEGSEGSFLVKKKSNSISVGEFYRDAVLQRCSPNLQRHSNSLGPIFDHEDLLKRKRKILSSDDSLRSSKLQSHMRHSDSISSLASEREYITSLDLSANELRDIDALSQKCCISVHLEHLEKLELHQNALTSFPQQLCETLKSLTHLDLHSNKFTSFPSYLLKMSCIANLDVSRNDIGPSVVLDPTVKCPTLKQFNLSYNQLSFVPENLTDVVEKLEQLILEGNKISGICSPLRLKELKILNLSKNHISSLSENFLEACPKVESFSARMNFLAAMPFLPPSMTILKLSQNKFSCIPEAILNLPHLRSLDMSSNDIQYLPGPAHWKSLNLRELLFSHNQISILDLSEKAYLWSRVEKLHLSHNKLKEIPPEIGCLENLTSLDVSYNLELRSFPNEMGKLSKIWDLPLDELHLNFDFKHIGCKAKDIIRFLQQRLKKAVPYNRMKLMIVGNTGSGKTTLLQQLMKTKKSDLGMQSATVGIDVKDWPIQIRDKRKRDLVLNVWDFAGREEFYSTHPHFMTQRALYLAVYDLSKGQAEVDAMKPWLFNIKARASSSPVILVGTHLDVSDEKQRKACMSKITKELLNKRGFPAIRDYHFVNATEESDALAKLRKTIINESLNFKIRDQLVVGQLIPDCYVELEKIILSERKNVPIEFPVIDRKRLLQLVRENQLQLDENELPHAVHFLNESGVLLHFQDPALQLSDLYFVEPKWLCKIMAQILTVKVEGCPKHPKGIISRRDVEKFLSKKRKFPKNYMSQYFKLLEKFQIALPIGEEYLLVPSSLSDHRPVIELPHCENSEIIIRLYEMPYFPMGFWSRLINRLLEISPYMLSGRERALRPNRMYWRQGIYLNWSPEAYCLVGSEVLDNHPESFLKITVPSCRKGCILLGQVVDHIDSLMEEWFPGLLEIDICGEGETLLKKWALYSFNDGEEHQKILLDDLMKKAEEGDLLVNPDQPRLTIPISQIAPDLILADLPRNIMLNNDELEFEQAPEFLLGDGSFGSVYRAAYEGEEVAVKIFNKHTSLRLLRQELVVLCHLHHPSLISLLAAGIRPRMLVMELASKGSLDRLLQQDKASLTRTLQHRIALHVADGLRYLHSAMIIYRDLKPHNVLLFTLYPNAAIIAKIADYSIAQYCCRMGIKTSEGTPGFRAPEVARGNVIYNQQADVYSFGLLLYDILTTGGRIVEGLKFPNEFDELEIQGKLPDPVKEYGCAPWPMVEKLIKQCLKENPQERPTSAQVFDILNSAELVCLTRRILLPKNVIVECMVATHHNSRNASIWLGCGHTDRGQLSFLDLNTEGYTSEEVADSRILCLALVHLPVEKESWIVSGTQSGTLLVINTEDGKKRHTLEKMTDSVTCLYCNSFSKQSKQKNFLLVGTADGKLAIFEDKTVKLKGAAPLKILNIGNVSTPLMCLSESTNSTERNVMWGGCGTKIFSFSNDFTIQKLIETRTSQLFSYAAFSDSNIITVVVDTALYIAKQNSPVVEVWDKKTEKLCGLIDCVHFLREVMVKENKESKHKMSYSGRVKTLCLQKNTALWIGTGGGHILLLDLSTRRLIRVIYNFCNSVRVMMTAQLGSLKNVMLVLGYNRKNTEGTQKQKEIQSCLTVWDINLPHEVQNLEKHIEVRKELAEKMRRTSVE

CN1CCC(CNc2ccc3ncc(C(=O)Nc4cccc(OC(F)(F)F)c4)n3n2)CC1 [Cpd 2]
EC50 (PDAC4 3D spheres): 7.17 µM | IC50 (TYK2): 65 µM | remaining binding at 1 µM (FES): 87% | remaining binding at 1 µM (PIK3CA(E542K)): 92% | remaining binding at 1 µM (FLT3(R834Q)): 100% | remaining binding at 1 µM (INSR): 100% | remaining binding at 1 µM (JNK1): 92% | remaining binding at 1 µM (RET): 88% | remaining binding at 1 µM (LRRK2(G2019S)): 93% | remaining binding at 1 µM (RSK4(KD2-C-t.)): 84% | remaining binding at 1 µM (SBK1): 100% | remaining binding at 1 µM (MARK4): 100% | remaining binding at 1 µM (SLK): 79% | remaining binding at 1 µM (MYLK): 100% | remaining binding at 1 µM (MYO3B): 100% | remaining binding at 1 µM (TXK): 100% | remaining binding at 1 µM (EPHB4): 93% | remaining binding at 1 µM (PAK4): 100% | remaining binding at 1 µM (YES): 95%
